Experimental data: patent US4008220A, “Penicillins” (Sumitomo Chemical Company, Limited, priority 1972, dated 1977)
Converted amounts (≈) assume the structure as drawn.

Legend:
Escherichia coli NIHJ = test: Minimal inhibitory concentration by agar dilution method; type: cell-based
[1] = tested on: Klebsiella pneumoniae 602; test: as above; type: cell-based
[2] = tested on: Pseudomonas aeruginosa 104; test: as above; type: cell-based
Proteus mirabilis GN2425 = test: as above; type: cell-based
Proteus vulgaris HX19 = test: as above; type: cell-based
[3] = tested on: Staphylococcus aureus 209P; test: as above; type: cell-based
[4] = tested on: various gram-positive and gram-negative bacteria; details: in words; cited from earlier work
Pseudomonas = details: in words; cited from earlier work

| MIC (Proteus mirabilis GN2425) | Compound | MIC (Escherichia coli NIHJ) | MIC [1] | MIC [2] | MIC (Proteus vulgaris HX19) | MIC [3] | growth inhibition / antimicrobial activity against gram-positive and gram-negative bacteria [4] | antimicrobial activity against Pseudomonas (Pseudomonas) |
| --- | --- | --- | --- | --- | --- | --- | --- | --- |
| 12.5 µg/mL (≈ 26.6 µM) | CC1(C)S[C@@H]2[C@H](NC(=O)C(NC(=O)c3cnccc3O)c3ccccc3)C(=O)N2[C@H]1C(=O)O (stereo partly drawn) [Example 25] | – | 25 µg/mL (≈ 53.1 µM) | 6.23 µg/mL (≈ 13.2 µM) | 0.2 µg/mL (≈ 0.425 µM) | 0.78 µg/mL (≈ 1.66 µM) | – | – |
| 6.25 µg/mL (≈ 13.1 µM) | CC1(C)S[C@@H]2[C@H](NC(=O)C(NC(=O)c3ccnnc3O)c3cccs3)C(=O)N2[C@H]1C(=O)O (stereo partly drawn) [Example 18] | 12.5 µg/mL (≈ 26.2 µM) | 12.5 µg/mL (≈ 26.2 µM) | 3.13 µg/mL (≈ 6.55 µM) | 0.05 µg/mL (≈ 0.105 µM) | 0.39 µg/mL (≈ 0.817 µM) | – | – |
| 6.25 µg/mL (≈ 13.3 µM) | CC1(C)S[C@@H]2[C@H](NC(=O)[C@H](NC(=O)c3ccnnc3O)c3ccccc3)C(=O)N2[C@H]1C(=O)O [Example 8, D-α-(3-hydroxypyridazine-4-carboxamido)-benzylpenicillin] | – | – | – | – | – | – | – |
| – | CC1(C)S[C@@H]2C(NC(=O)C(N)c3ccccc3)C(=O)N2[C@H]1C(=O)O (stereo partly drawn) [Ampicillin, 6-(α-aminophenylacetamido)-penicillanic acid] | – | – | – | – | – | inhibits the growth of various gram-positive and gram-negativebacteria | does not exert any appreciable antimicrobial activity against Pseudomonas |
| 6.25 µg/mL (≈ 11.9 µM) | CC(=O)c1c(C)ncc(C(=O)N[C@@H](C(=O)N[C@@H]2C(=O)N3[C@@H]2SC(C)(C)[C@@H]3C(=O)O)c2ccccc2)c1O [Example 4, D-α-(3-acetyl-4-hydroxy-2-methyl-pyridine-5-carboxamido)-benzylpenicillin] | 12.5 µg/mL (≈ 23.7 µM) | 12.5 µg/mL (≈ 23.7 µM) | 12.5 µg/mL (≈ 23.7 µM) | 0.39 µg/mL (≈ 0.741 µM) | 0.78 µg/mL (≈ 1.48 µM) | – | – |
| 100 µg/mL (≈ 220 µM) | CC1(C)S[C@@H]2[C@H](NC(=O)C(NC(=O)c3cccnc3)c3ccccc3)C(=O)N2[C@H]1C(=O)O (stereo partly drawn) [II, reference compound] | 100 µg/mL (≈ 220 µM) | 100 µg/mL (≈ 220 µM) | 50 µg/mL (≈ 110 µM) | 0.78 µg/mL (≈ 1.72 µM) | 0.78 µg/mL (≈ 1.72 µM) | – | – |
| 6.25 µg/mL (≈ 10.2 µM) | CCOC(=O)Oc1c(C(=O)NC(C(=O)N[C@@H]2C(=O)N3[C@@H]2SC(C)(C)[C@@H]3C(=O)O)c2ccccc2)cnc2c1CCCCC2 (stereo partly drawn) [Example 21] | 25 µg/mL (≈ 40.9 µM) | 3.13 µg/mL (≈ 5.13 µM) | 25 µg/mL (≈ 40.9 µM) | 0.78 µg/mL (≈ 1.28 µM) | 0.78 µg/mL (≈ 1.28 µM) | – | – |
| 12.5 µg/mL (≈ 24.5 µM) | CC1(C)S[C@@H]2[C@H](NC(=O)[C@H](NC(=O)c3cnc4c(c3O)CCC4)c3ccccc3)C(=O)N2[C@H]1C(=O)O [Example 2, D-α-(4-hydroxy-2,3-cyclopentenopyridine-5-carboxamido)-benzylpenicillin] | 25 µg/mL (≈ 49 µM) | 12.5 µg/mL (≈ 24.5 µM) | 12.5 µg/mL (≈ 24.5 µM) | 0.39 µg/mL (≈ 0.764 µM) | 0.39 µg/mL (≈ 0.764 µM) | – | – |
| 6.25 µg/mL (≈ 11.9 µM) | CC1(C)S[C@@H]2[C@H](NC(=O)[C@H](NC(=O)c3cnc4c(c3O)CCCC4)c3ccccc3)C(=O)N2[C@H]1C(=O)O [Example 3, D-α-(4-hydroxy-2,3-cyclohexenopyridine-5-carboxamido)-benzylpenicillin] | – | – | 12.5 µg/mL (≈ 23.8 µM) | 0.39 µg/mL (≈ 0.743 µM) | – | – | – |
| 6.25 µg/mL (≈ 10.3 µM) | CC(C)(C)C(=O)Oc1c(C(=O)N[C@@H](C(=O)N[C@@H]2C(=O)N3[C@@H]2SC(C)(C)[C@@H]3C(=O)O)c2ccccc2)cnc2c1CCCC2 [Example 5, D-α-(2,3-cyclohexeno-4-pivaloyloxypyridine-5-carboxamido)-benzylpenicillin] | 12.5 µg/mL (≈ 20.5 µM) | 6.25 µg/mL (≈ 10.3 µM) | 12.5 µg/mL (≈ 20.5 µM) | 0.39 µg/mL (≈ 0.641 µM) | 0.78 µg/mL (≈ 1.28 µM) | – | – |
| 6.25 µg/mL (≈ 10.5 µM) | CCOC(=O)Oc1c(C(=O)N[C@@H](C(=O)N[C@@H]2C(=O)N3[C@@H]2SC(C)(C)[C@@H]3C(=O)O)c2ccccc2)cnc2c1CCCC2 [Example 6, D-α -(4-ethoxycarbonyloxy-2,3-cyclohexenopyridine-5-carboxamido)-benzylpenicillin] | 12.5 µg/mL (≈ 20.9 µM) | 6.25 µg/mL (≈ 10.5 µM) | 12.5 µg/mL (≈ 20.9 µM) | 0.39 µg/mL (≈ 0.654 µM) | 0.78 µg/mL (≈ 1.31 µM) | – | – |
| 12.5 µg/mL (≈ 23.6 µM) | Cc1ncc(C(=O)NC(C(=O)N[C@@H]2C(=O)N3[C@@H]2SC(C)(C)[C@@H]3C(=O)O)c2ccccc2)c(O)c1C(C)O (stereo partly drawn) [Example 22] | 25 µg/mL (≈ 47.3 µM) | 12.5 µg/mL (≈ 23.6 µM) | 6.25 µg/mL (≈ 11.8 µM) | 0.39 µg/mL (≈ 0.738 µM) | 0.78 µg/mL (≈ 1.48 µM) | – | – |
| 6.25 µg/mL (≈ 12.8 µM) | CC1(C)S[C@@H]2[C@H](NC(=O)[C@H](NC(=O)c3cnccc3O)c3ccc(O)cc3)C(=O)N2[C@H]1C(=O)O [Example 9, D-α-(4-hydroxypyridine-3-carboxamido)-p-hydroxybenzylpenicillin] | – | 100 µg/mL (≈ 206 µM) | – | – | 0.78 µg/mL (≈ 1.6 µM) | – | – |
| 25 µg/mL (≈ 55.4 µM) | CC(C)CC(NC(=O)c1ccnnc1O)C(=O)N[C@@H]1C(=O)N2[C@@H]1SC(C)(C)[C@@H]2C(=O)O (stereo partly drawn) [Example 13] | 12.5 µg/mL (≈ 27.7 µM) | 25 µg/mL (≈ 55.4 µM) | 12.5 µg/mL (≈ 27.7 µM) | 0.39 µg/mL (≈ 0.864 µM) | 0.39 µg/mL (≈ 0.864 µM) | – | – |

| Compound | MIC (Proteus mirabilis GN2425) | MIC (Escherichia coli NIHJ) | MIC [1] | MIC [2] | MIC (Proteus vulgaris HX19) | MIC [3] | growth inhibition / antimicrobial activity against gram-positive and gram-negative bacteria [4] | antimicrobial activity against Pseudomonas (Pseudomonas) |
| --- | --- | --- | --- | --- | --- | --- | --- | --- |
| CC1(C)S[C@@H]2[C@H](NC(=O)[C@H](NC(=O)c3cccnc3O)c3ccc(O)cc3)C(=O)N2[C@H]1C(=O)O [Example 10, D-α-(2-hydroxypyridine-3-carboxamido)-p-hydroxybenzylpenicillin] | 12.5 µg/mL (≈ 25.7 µM) | 12.5 µg/mL (≈ 25.7 µM) | 100 µg/mL (≈ 206 µM) | 6.25 µg/mL (≈ 12.8 µM) | 0.2 µg/mL (≈ 0.411 µM) | 1.56 µg/mL (≈ 3.21 µM) | – | – |
| CSc1ncc(C(=O)NC(C(=O)N[C@@H]2C(=O)N3[C@@H]2SC(C)(C)[C@@H]3C(=O)O)c2ccccc2)c(O)n1 (stereo partly drawn) [Example 27] | 12.5 µg/mL (≈ 24.2 µM) | 50 µg/mL (≈ 96.6 µM) | 50 µg/mL (≈ 96.6 µM) | 6.25 µg/mL (≈ 12.1 µM) | 0.1 µg/mL (≈ 0.193 µM) | 0.78 µg/mL (≈ 1.51 µM) | – | – |
| CC1(C)S[C@@H]2[C@H](NC(=O)C(NC(=O)c3ccnnc3O)C3=CCC=CC3)C(=O)N2[C@H]1C(=O)O (stereo partly drawn) [Example 12] | 12.5 µg/mL (≈ 26.4 µM) | 12.5 µg/mL (≈ 26.4 µM) | 3.13 µg/mL (≈ 6.61 µM) | 3.13 µg/mL (≈ 6.61 µM) | 0.05 µg/mL (≈ 0.106 µM) | 0.2 µg/mL (≈ 0.422 µM) | – | – |
| CCOC(=O)Oc1c(C(=O)N[C@@H](C(=O)N[C@@H]2C(=O)N3[C@@H]2SC(C)(C)[C@@H]3C(=O)O)c2ccccc2)cnc2c1CCC2 [Example 1, D-α-(4-ethoxycarbonyloxy-2,3-cyclopentenopyridine-5-carboxamido)-benzylpenicillin] | 3.13 µg/mL (≈ 5.37 µM) | 12.5 µg/mL (≈ 21.5 µM) | 6.25 µg/mL (≈ 10.7 µM) | 6.25 µg/mL (≈ 10.7 µM) | 0.05 µg/mL (≈ 0.0858 µM) | 0.39 µg/mL (≈ 0.669 µM) | – | – |
| CC1(C)S[C@@H]2[C@H](NC(=O)C(NC(=O)c3ccnnc3O)c3ccsc3)C(=O)N2[C@H]1C(=O)O (stereo partly drawn) [Example 15] | 6.25 µg/mL (≈ 13.1 µM) | 12.5 µg/mL (≈ 26.2 µM) | 12.5 µg/mL (≈ 26.2 µM) | 3.13 µg/mL (≈ 6.55 µM) | 0.05 µg/mL (≈ 0.105 µM) | 0.39 µg/mL (≈ 0.817 µM) | – | – |
| CC1(C)S[C@@H]2[C@H](NC(=O)C(NC(=O)c3ccnnc3O)c3cnsc3)C(=O)N2[C@H]1C(=O)O (stereo partly drawn) [Example 19] | 6.25 µg/mL (≈ 13.1 µM) | 12.5 µg/mL (≈ 26.1 µM) | 25 µg/mL (≈ 52.2 µM) | 6.25 µg/mL (≈ 13.1 µM) | 0.05 µg/mL (≈ 0.104 µM) | 0.39 µg/mL (≈ 0.815 µM) | – | – |
| Cc1cc(C(=O)NC(C(=O)N[C@@H]2C(=O)N3[C@@H]2SC(C)(C)[C@@H]3C(=O)O)c2ccccc2)c(O)nn1 (stereo partly drawn) [Example 24] | 50 µg/mL (≈ 103 µM) | 12.5 µg/mL (≈ 25.7 µM) | 25 µg/mL (≈ 51.5 µM) | 3.13 µg/mL (≈ 6.45 µM) | 0.39 µg/mL (≈ 0.803 µM) | 0.39 µg/mL (≈ 0.803 µM) | – | – |
| CC1(C)S[C@@H]2[C@H](NC(=O)[C@H](NC(=O)c3cnccc3O)C3=CCC=CC3)C(=O)N2[C@H]1C(=O)O [Example 11, D-α-(4-hydroxypyridine-3-carboxamido)-1,4-cyclohexadienylmethylpenicillin] | 12.5 µg/mL (≈ 26.5 µM) | 25 µg/mL (≈ 52.9 µM) | 12.5 µg/mL (≈ 26.5 µM) | 6.25 µg/mL (≈ 13.2 µM) | 0.2 µg/mL (≈ 0.423 µM) | 0.39 µg/mL (≈ 0.825 µM) | – | – |
| CC1(C)S[C@@H]2[C@H](NC(=O)C(NC(=O)c3cnc4c(c3O)CCCCC4)c3ccccc3)C(=O)N2[C@H]1C(=O)O (stereo partly drawn) [Example 20] | 6.25 µg/mL (≈ 11.6 µM) | 25 µg/mL (≈ 46.4 µM) | 3.13 µg/mL (≈ 5.81 µM) | 12.5 µg/mL (≈ 23.2 µM) | 0.78 µg/mL (≈ 1.45 µM) | 0.78 µg/mL (≈ 1.45 µM) | – | – |
| CC1(C)S[C@@H]2[C@H](NC(=O)C(NC(=O)c3cncnc3O)c3ccsc3)C(=O)N2[C@H]1C(=O)O (stereo partly drawn) [Example 17] | 6.25 µg/mL (≈ 13.1 µM) | 25 µg/mL (≈ 52.4 µM) | 50 µg/mL (≈ 105 µM) | 3.13 µg/mL (≈ 6.55 µM) | 0.05 µg/mL (≈ 0.105 µM) | 0.39 µg/mL (≈ 0.817 µM) | – | – |
| CC1(C)S[C@@H]2[C@H](NC(=O)C(NC(=O)c3cnccc3O)c3cnsc3)C(=O)N2[C@H]1C(=O)O (stereo partly drawn) [Example 16] | 12.5 µg/mL (≈ 26.2 µM) | 25 µg/mL (≈ 52.4 µM) | 25 µg/mL (≈ 52.4 µM) | 6.25 µg/mL (≈ 13.1 µM) | 0.2 µg/mL (≈ 0.419 µM) | 0.78 µg/mL (≈ 1.63 µM) | – | – |
| CC1(C)S[C@@H]2[C@H](NC(=O)C(NC(=O)c3ccccn3)c3ccccc3)C(=O)N2[C@H]1C(=O)O (stereo partly drawn) [I, reference compound] | 50 µg/mL (≈ 110 µM) | – | – | – | – | – | – | – |
